Experiments:
[1] = Peptide self-assembly morphology by TEM; assay type: physicochemical
Protocol: Powders of each of the peptides were dissolved in 1.5 mM Ni(Ac)2 solution to a certain concentration range (e.g. 0.0–1.5 mM) and sonicated for a period of time, and were then allowed to cool gradually to 25 °C overnight. Aged samples could be left at room temperature for more than 90 days.
TEM images were recorded using a JEM1200EX (JEOL) (Japan) operating at 100 kV dropped on a double copper net. Typically, 1.5 mM samples are diluted 10-fold and stained with 3% uranyl acetate for viewing. For AFM, liquid Ni-IH-7 ([…]) was dropped on a mica sheet and observed by Bruker Dension Icon (Germany). The AMFM data were fitted using the Analyze panel module in Igor Pro software to obtain a modulus curve, yielding the average Young’s modulus. Simultaneously, we utilized the Hertz model force curve fitting results to validate the reliability of the Young’s modulus. Cryo-EM and two-dimensional classification data of Ni-IH-7 were collected by Talos Arctica 200 kV FEG (USA). AMFM was tested using Cypher S (USA) in the presence of AC160TS-R3 (probe). Samples were diluted 50 times and dried on mica flakes. KPFM was tested using Cypher S (USA) and obtain the Contact potential difference. The standard highly oriented pyrolytic graphite was 675 mV. HAADF-STEM was obtained by JEM ARM 200 F (accelerating voltage: 200 kV) (JEOL, Japan).

[2] = Variable temperature circular dichroism; assay type: physicochemical
Protocol: The Ultraviolet-visible (UV-VIS) spectroscopy of samples were collected by a Shimadzu UV-3600. For FTIR, 3 mg of powdered sample and 50 mg of potassium bromide (KBr) were mixed for tablet compression analysis with transmittance at 400–4000 cm^−1, collected using an iS10 FTIR spectrometer (USA). Measurements were performed by averaging 32 scans at 4-cm^−1 resolution (signal-to-noise ratio (S/N) = 50,000). The single-molecule STM imaging experiments were performed under ambient conditions by using a Nanoscope IIIa SPM system (Bruker, USA). 10 μL of the peptide solution was incubated on the surface of freshly cleaved highly oriented pyrolytic graphite (HOPG) at room temperature for 20 min. Then the excess peptide solution was removed from the substrate surface. The STM tips were mechanically made by Ir/Pt wires (20/80). Different STM tips and samples were used in these imaging experiments to ensure reproducibility. […] Zeta potentials of samples were determined using a Zetasizer Nano ZS90 (England) via three tests in a 1-mL sample cell. All CD datum were collected using Chirascan Plus (England) and analyzed at 190-260 nm. […] Pyridine infrared (IR) were measured at 1400–1700 cm^−1 using Thermo Scientific Nicolet 380 (USA). […] The fluorescence signals (I374nm, I394nm) were collected for detecting CMC using the pyrene probe under excitation at 330 nm across various concentrations of peptides.

Substance | assembly into nanostructure [1] | resistance to enzymatic degradation by neutral protease (neutral protease) | resistance to enzymatic degradation by lyticase (lyticase) | thermal stability of conformation [2] | resistance to enzymatic degradation by snailase (snailase)
ICICICI [heptapeptide ICICICI] | could not form typical nanostructure | – | – | – | –
IHIHICI [Ni-IH-7] | – | considerable resistance to enzymatic degradation | considerable resistance to enzymatic degradation | retained β-sheet conformation | considerable resistance to enzymatic degradation
